Results from US20230219963A1, “PYRROLO[2,3-D]PYRIMIDINE DERIVATIVES” (Pfizer Inc., priority 2020, published 2023).
pIC50: −log10 of the molar value.

How the values were obtained:
Assay type in all cases: cell-based
[1] = system: EPO induced pSTAT5; assay: EPO-induced pSTAT5 in human whole blood (all events); conditions: JAK2/JAK2, read-out: EPO induced pSTAT5, cellular potency IC50
Method: (§1) Human whole blood was collected from healthy donors via vein puncture into Vacutainer collection tubes containing sodium heparin in accordance with Pfizer protocols (Protocol No. GOHW RDP-01) approved by the Shulman Institutional Review Board. Blood was warmed to 37° C. priorto use. Human whole blood was aliquoted (90 μL/well) in 96-well, deep-well, V-bottom plates and treated with compounds (5 μL/well) at different concentrations up to 60 μM (0.2% DMSO final) at 37° C. for 60 minutes. This was followed by a challenge with IFNα (5000 U/mL), IFNγ (100 ng/mL), IL-6 (50 ng/mL), IL-10 (30 ng/mL), IL-12 (30 ng/mL), IL-15 (30 ng/mL), IL-21 (50 ng/mL), IL-23 (25 ng/mL), IL-27 (1000 ng/mL), EPO (2 U/mL), TSLP (50 ng/mL) or PBS and incubated for 15 minutes. Anti-cell surface antibodies were added 15 minutes prior to cytokine stimulation; anti-CD3-BV421 (0.5 μL/well) to IL-6-treated and TSLP-treated samples and anti-CD14-BV421 (0.5 μL/well) to IFNγ-treated samples. Samples were treated with warm 1×Lyse/Fix buffer (700 μL/well) to terminate activation and further incubated at 37° C. for 20 minutes to lyse red blood cells. Plates were centrifuged at 300×g for 5 minutes, supernatant was aspirated, and cells were washed with 800 μL/well of staining buffer (D-PBS containing 0.1% FBS and 0.01% sodium azide). Washed cell pellets were resuspended in 350 μL/well of prechilled 90% methanol and incubated at 4° C. for 30 minutes. After the removal of 90% methanol, cells were washed once with staining buffer. All samples were finally suspended in 150 μL/well of the desired anti-phospho-STAT antibodies at 1:150 dilution in staining buffer; anti-pSTAT1-AF647 in IFNγ treated samples; anti-pSTAT1-AF488 and anti-pSTAT3-AF647 in IL-6-treated samples, anti-pSTAT3-AF647 in IFNα, IL-10, IL-21, IL-23 and IL-27 treated samples, anti-pSTAT4-AF647 in IL-12 treated samples, anti-pSTAT5-AF-647 in EPO, IL-15 and TSLP-treated samples. Human primary keratinocytes were cultured in DermaLife™ medium with supplement kit to expand cell population. Cell passages 2 to 5 were used in the assays. Cells were harvested at ˜80% confluence, suspended in warm DermaLife™ medium, aliquoted (90 μL/well) in 96-well, deep-well, V-bottom plates, and incubated at 37° C. for 30 minutes. Cells were then treated with compounds (0.0003 to 20 μM) for 60 minutes and followed by stimulation with IL-4 (2 ng/mL) or IL-13 (20 ng/mL) at 37° C. for 15 minutes. […]
(§2) After overnight incubation at 4° C., anti-pSTAT stained samples were transferred into 96-well polypropylene U-bottom plates and flow cytometric analysis was performed on a LSR Fortessa™ equipped with a HTS plate loader. […] Background fluorescence was defined using unstimulated cells and a gate was placed at the foot of the peak to include ˜0.5% gated population. […]

[2] = system: IL-10 induced pSTAT3; assay: IL-10-induced pSTAT3 in human whole blood (lymphocytes); conditions: Lymphocyte, JAK1/TYK2, read-out: IL-10 induced pSTAT3, cellular potency IC50
Method: as §1, §2

[3] = system: IL-31 induced pSTAT3; assay: IL-31-induced pSTAT3 in IFNγ-primed THP-1 cells; conditions: Homo sapiens, JAK1/JAK2, read-out: IL-31 induced pSTAT3, cellular potency IC50
Method: THP-1 cells were maintained in RPMI 1640 medium containing 10% FBS, 50 μM 2 mercaptoethanol, 50 U/mL penicillin, 50 µg/mL streptomycin and 2 mM L-glutamine. THP 1 cells were treated with IFNγ (20 ng/mL) for 18 hours. IFNγ primed THP-1 cells were resuspended in fresh RPMI 1640 medium, treated with compounds (0.0003 to 20 μM) for 60 minutes, followed by stimulation with IL-31 (1 μg/mL) for additional 10 minutes. Cells were then fixed by 2% paraformaldehyde and permeabilized by 90% methanol. Fixed and permeabilized cells were stained with AlexaFluor647™ labeled anti-pSTAT3 antibody (1 to 150 dilution).
After overnight incubation at 4° C., anti-pSTAT stained samples were transferred into 96-well polypropylene U-bottom plates and flow cytometric analysis was performed on a LSR Fortessa™ equipped with a HTS plate loader. For human whole blood samples, lymphocyte population was gated for pSTAT histogram analysis for IFNα, IL-10, IL-12, IL-15, IL-21, IL-23, and IL-27-treated samples; CD14^+ cells for IFNγ-treated samples; CD3^+ cells for IL-6 and TSLP-treated samples; all events (entire populations) for EPO-treated samples. Entire populations of keratinocytes and THP-1 cells were gated for the IL-4, IL-13, IL-22 and IL-31 assays. Background fluorescence was defined using unstimulated cells and a gate was placed at the foot of the peak to include ˜0.5% gated population. Histogram statistical analysis was performed using FACSDiva version 8.0. Relative fluorescence unit, which measures the level of pSTAT, was calculated by multiplying the percent positive population and its mean fluorescence. Inhibition curves and half maximal inhibitory concentration (IC50) values were determined using Prism™ software (Version 8) or the Activity Base data analysis software (ID Business Solutions).

[4] = system: IL-6 induced pSTATI; assay: IL-6-induced pSTAT1 in human whole blood (CD3+ cells); conditions: JAK1/JAK2, read-out: IL-6 induced pSTATI, cellular potency IC50
Method: as §1, §2

[5] = system: IFNg induced pSTATI; assay: IFNγ-induced pSTAT1 in human whole blood (CD14+ cells); conditions: JAK1/JAK2, read-out: IFNg induced pSTATI, cellular potency IC50
Method: as §1, §2

[6] = system: IL-23 induced pSTAT3; assay: IL-23-induced pSTAT3 in human whole blood (lymphocytes); conditions: Lymphocyte, JAK2/TYK2, read-out: IL-23 induced pSTAT3, cellular potency IC50
Method: as §1, §2

[7] = system: IL-15 induced pSTAT5; assay: IL-15-induced pSTAT5 in human whole blood (lymphocytes); conditions: Lymphocyte, JAK1/JAK3, read-out: IL-15 induced pSTAT5, cellular potency IC50
Method: as §1, §2

pIC50 [1]: 5.14
pIC50 [2]: 5.43
pIC50 [3]: 7.40
pIC50 [4]: 6.46
pIC50 [5]: 5.77
pIC50 [6]: < 4.78
pIC50 [7]: 6.27
Compound: CCCS(=O)(=O)N[C@H]1C[C@@H](N(C)c2ncnc3[nH]ccc23)C1 [Abrocitinib, N-((1S,3S)-3-(Methyl(7H-pyrrolo[2,3-d]pyrimidin-4-yl)amino)cyclo-butyl)propane-1-sulfonamide, reference compound]
